# Literature values as cited in patent US6528705B1, “Method for improving productivity of higher plants” (Nara Institute of Science and Technology, priority 1999, dated 2003).
# Like-named read-outs stand apart in the source and are kept apart here.
# What was measured:
# [1] = target: Synechococcus PCC 7942 FBPase-I (fructose-1,6-bisphosphatase/sedoheptulose-1,7-bisphosphatase, FBPase/SBPase), wild type, sequence number 1
# [2] = system: Synechococcus PCC 7942 FBPase-I (fructose-1,6-bisphosphatase/sedoheptulose-1,7-bisphosphatase, FBPase/SBPase), wild type, sequence number 1; conditions: purified enzyme
# [3] = system: Synechococcus PCC 7942 FBPase-I (fructose-1,6-bisphosphatase/sedoheptulose-1,7-bisphosphatase, FBPase/SBPase), wild type, sequence number 1; conditions: after the treatment by 1 mM H2O2; purified enzyme
structure (smiles),measurement,setting,value
Nc1ncnc2c1ncn2[C@@H]1O[C@H](COP(=O)(O)O)[C@@H](O)[C@H]1O [AMP],Ki,[1]; inhibition of the enzyme activity by AMP,260 µM
"O=P(O)(O)OC[C@H]1OC(O)(COP(=O)(O)O)[C@@H](O)[C@@H]1O (some centres unmarked) [Fru1,6-P2, fructose-1,6-bisphosphate]",Km,"[2]; substrate Fru1,6-P2, read-out: Km for Fru1,6-P2",52 µM
OO [H2O2],native enzyme activity retained,[3],more than 80%
"O=P(O)(O)OC[C@@H](O)[C@H]1OC(O)(COP(=O)(O)O)[C@@H](O)[C@@H]1O (some centres unmarked) [Sed1,7-P2, sedoheptulose-1,7-bisphosphate]",Km,"[2]; substrate Sed1,7-P2, read-out: Km for Sed1,7-P2",118 µM
"O=P(O)(O)OC[C@H]1O[C@@](CO)(OP(=O)(O)O)[C@@H](O)[C@@H]1O [fructose-2,6-P2]",inhibition of enzyme activity,"[1]; fructose-2,6-P2, concentration not given",not inhibited
